The values below come from US10183021B2, “sGC stimulators” (Ironwood Pharmaceuticals, Inc., priority 2013, dated 2019).

The target of this experiment is soluble guanylate cyclase (sGC) (Homo sapiens (Human), UniProt Q02108+Q02153). Put plainly: sGC-HEK-cGMP assay, new protocol with DETA-NONOate, LC/MS detection (Example 2C). The conditions noted are these: read-out: Absolute EC50 (uM) - binned. The experiment is classed as cell-based. How it is done: Human embryonic kidney cells (HEK293), endogenously expressing soluble guanylate cyclase (sGC), were used to evaluate the activity of test compounds. Compounds stimulating the sGC enzyme should cause an increase in the intracellular concentration of cGMP. HEK 293 cells were seeded in Dulbecco's Modification of Eagle's Medium supplemented with fetal bovine serum (10% final) and penicillin (100 U/mL)/streptomycin (100 μg/mL) in a 50 μL volume at a density of 1.5×10^4 cells/well in a poly-D-lysine coated 384 well flat bottom plate. Cells were incubated overnight at 37° C. in a humidified chamber with 5% CO2. Medium was aspirated and cells were washed with 1× Hank's Buffered Saline Salt Solution (50 μL). Cells were then incubated for 15 minutes at 37° C. with 50 μL of a 0.5 mM 3-isobutyl-1-methylxanthine (IBMX) solution. Test article and Diethylenetriamine NONOate (DETA-NONOate) solutions (x μM concentration for test article solution and 10 μM concentration for DETA-NONOate solution; wherein x is one of the following concentrations);
were then added to the assay mixture and the resulting mixture incubated at 37° C. for 20 minutes. After the 20 minute incubation, the assay mixture was aspirated and 10% acetic acid containing 150 ng/mL+3-cGMP (internal standard for LCMS) (50 μL) was added to the cells. The plate was incubated at 4° C. for 30 minutes in the acetic acid solution to stop the reaction and lyse the cells. The plates were then centrifuged at 1,000 g for 3 minutes at 4° C. and the supernatant transferred to a clean reaction plate for LCMS analysis.
cGMP concentrations were determined from each sample using the LCMS conditions below (Table 5) and calculated standard curve.
Data were normalized to a high control using the following equation: 100*(Sample−Low Control)/(High Control−Low Control), where the low control is the average of 16 samples treated with 1% DMSO, and the high control is the average of 16 samples treated with 30 μM of 1-329 Data were fit using a 4-parameter fit (log(agonist) vs. response—variable slope) using GraphPad Prism Software v.5. n=2 for all compounds. […] Compounds failing to elicit a minimum response of 50% are reported as >30 μM.

Where two headings read alike, the source gives them in different places.

Chain of soluble guanylate cyclase (sGC) (Q02153 whole entry): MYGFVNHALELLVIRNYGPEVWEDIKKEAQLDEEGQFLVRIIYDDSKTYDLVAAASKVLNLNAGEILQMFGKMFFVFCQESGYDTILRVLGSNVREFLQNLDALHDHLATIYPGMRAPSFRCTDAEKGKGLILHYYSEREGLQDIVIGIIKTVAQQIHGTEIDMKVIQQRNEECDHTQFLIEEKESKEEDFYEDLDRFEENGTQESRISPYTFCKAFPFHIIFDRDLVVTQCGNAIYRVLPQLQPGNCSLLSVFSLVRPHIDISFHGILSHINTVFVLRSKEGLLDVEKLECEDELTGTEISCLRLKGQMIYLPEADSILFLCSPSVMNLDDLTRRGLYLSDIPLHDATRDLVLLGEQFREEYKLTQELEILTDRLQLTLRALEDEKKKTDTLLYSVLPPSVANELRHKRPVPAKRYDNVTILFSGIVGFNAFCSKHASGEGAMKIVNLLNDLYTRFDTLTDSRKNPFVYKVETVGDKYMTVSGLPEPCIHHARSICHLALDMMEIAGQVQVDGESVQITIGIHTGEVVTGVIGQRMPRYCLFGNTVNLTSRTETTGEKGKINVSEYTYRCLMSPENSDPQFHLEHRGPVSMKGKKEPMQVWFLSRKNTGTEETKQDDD
Chain of soluble guanylate cyclase (sGC) (Q02108 whole entry): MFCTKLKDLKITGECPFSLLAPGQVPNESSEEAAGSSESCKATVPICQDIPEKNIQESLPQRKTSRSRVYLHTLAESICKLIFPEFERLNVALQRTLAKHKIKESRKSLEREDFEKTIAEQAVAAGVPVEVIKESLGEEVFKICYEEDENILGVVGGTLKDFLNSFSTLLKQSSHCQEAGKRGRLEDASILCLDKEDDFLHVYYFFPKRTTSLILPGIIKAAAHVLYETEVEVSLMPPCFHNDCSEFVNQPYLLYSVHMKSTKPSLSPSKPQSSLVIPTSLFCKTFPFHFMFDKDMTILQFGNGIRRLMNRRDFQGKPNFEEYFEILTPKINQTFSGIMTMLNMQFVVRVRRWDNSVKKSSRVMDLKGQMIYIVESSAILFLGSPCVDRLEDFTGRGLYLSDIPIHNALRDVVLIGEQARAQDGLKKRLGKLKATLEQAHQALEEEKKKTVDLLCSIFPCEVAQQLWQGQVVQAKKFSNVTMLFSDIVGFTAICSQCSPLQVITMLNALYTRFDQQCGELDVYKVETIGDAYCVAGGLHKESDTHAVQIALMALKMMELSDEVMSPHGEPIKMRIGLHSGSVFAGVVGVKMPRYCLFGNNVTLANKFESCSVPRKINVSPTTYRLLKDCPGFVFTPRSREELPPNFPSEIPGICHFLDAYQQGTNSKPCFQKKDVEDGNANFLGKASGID

For the compound `NC(=O)CNc1nc(-c2cc(-c3ccon3)n(Cc3ccccc3F)n2)ncc1F` [Compound I-417], the EC50 (usually the concentration giving half of the maximal effect) lay within 0.101 to 1 µM.

For the compound `O=C(O)CC(Nc1nc(-c2cc(-c3ccon3)n(Cc3ccccc3F)n2)ncc1F)C(F)(F)F` (stereo not shown) [Compound I-418], the EC50 lay within 0.101 to 1 µM.

On to `NC(=O)CC(Nc1nc(-c2cc(-c3ccon3)n(Cc3ccccc3F)n2)ncc1F)C(F)(F)F` (stereo not shown) [Compound I-419], for which the EC50 is more than 1 µM.

`CCOC(=O)C1(C)C(=O)Nc2nc(-c3cc(-c4ccon4)n(Cc4ccccc4F)n3)nc(N)c21` (stereo not shown) [Compound I-420]: the EC50 was less than 0.1 µM.

For the compound `CC1(C(N)=O)C(=O)Nc2nc(-c3cc(-c4ccon4)n(Cc4ccccc4F)n3)nc(N)c21` (stereo not shown) [Compound I-421], the EC50 was in the range of 0.101 to 1 µM.

`CC1(C(=O)NC2CC2)C(=O)Nc2nc(-c3cc(-c4ccon4)n(Cc4ccccc4F)n3)nc(N)c21` (stereo not shown) [Compound I-422]: the EC50 was in the range of 0.101 to 1 µM.

Turning to `O=S(=O)(C1CCN(c2nc(-c3cc(-c4ccon4)n(Cc4ccccc4F)n3)ncc2F)CC1)N1CCOCC1` [Compound I-423], the EC50 is less than 0.1 µM.

As to `O=C(O)[C@@H]1CN(c2nc(-c3cc(-c4ccon4)n(Cc4ccccc4F)n3)ncc2F)C[C@H]1C(F)(F)F` [Compound I-424], the EC50 is less than 0.1 µM.

Regarding `O=C(NS(=O)(=O)C1CCN(c2nc(-c3cc(-c4ccon4)n(Cc4ccccc4F)n3)ncc2F)CC1)C1CC1` [Compound I-425], the EC50 was less than 0.1 µM.

Take `CC(=O)NS(=O)(=O)C1CCN(c2nc(-c3cc(-c4ccon4)n(Cc4ccccc4F)n3)ncc2F)CC1` [Compound I-426]: the EC50 was less than 0.1 µM.

For the compound `NS(=O)(=O)C1CCN(c2nc(-c3cc(-c4ccon4)n(Cc4ccccc4F)n3)ncc2F)C1` (stereo not shown) [Compound I-427], the EC50 is less than 0.1 µM.

With `OCCN(CCO)c1nc(-c2cc(-c3ccon3)n(Cc3ccccc3F)n2)ncc1F` [Compound I-428], the EC50 is less than 0.1 µM.

Regarding `O=C(NS(=O)(=O)C1CCN(c2nc(-c3cc(-c4ccon4)n(Cc4ccccc4F)n3)ncc2F)C1)C1CC1` (stereo not shown) [Compound I-429], the EC50 is less than 0.1 µM.

In the case of `OC[C@@H]1[C@H](O)CCN1c1nc(-c2cc(-c3ccon3)n(Cc3ccccc3F)n2)ncc1F` [Compound I-430], the EC50 is less than 0.1 µM.

With `CC(O)CN(CC(C)O)c1nc(-c2cc(-c3ccon3)n(Cc3ccccc3F)n2)ncc1F` (stereo not shown) [Compound I-431], the EC50 was less than 0.1 µM.

For `O=S(=O)(CCNc1nc(-c2cc(-c3ccon3)n(Cc3ccccc3F)n2)ncc1F)NO` [Compound I-432], the EC50 is less than 0.1 µM.

With `O=C1C=C(O)CN(c2nc(-c3cc(-c4ccon4)n(Cc4ccccc4F)n3)ncc2F)C1` [Compound I-433], the EC50 was more than 1 µM.

Regarding `OCC1(O)CCN(c2nc(-c3cc(-c4ccon4)n(Cc4ccccc4F)n3)ncc2F)CC1` [Compound I-434], the EC50 is less than 0.1 µM.

Regarding `OC[C@@H]1C[C@@H](O)CN1c1nc(-c2cc(-c3ccon3)n(Cc3ccccc3F)n2)ncc1F` [Compound I-435], the EC50 was less than 0.1 µM.

Regarding `O=S(=O)(CCNc1nc(-c2cc(-c3ccon3)n(Cc3ccccc3F)n2)ncc1F)NC[C@H](O)CO` [Compound I-437], the EC50 lay within 0.101 to 1 µM.

Turning to `NC(=O)C1(O)CCN(c2nc(-c3cc(-c4ccon4)n(Cc4ccccc4F)n3)ncc2F)CC1` [Compound I-438], the EC50 is less than 0.1 µM.

Regarding `O=S(=O)(CCNc1nc(-c2cc(-c3ccon3)n(Cc3ccccc3F)n2)ncc1F)NCCO` [Compound I-439], the EC50 was less than 0.1 µM.

Regarding `O=C(NC1CN(c2nc(-c3cc(-c4ccon4)n(Cc4ccccc4F)n3)ncc2F)C1)C1(O)CC1` [Compound I-440], the EC50 lay within 0.101 to 1 µM.

On to `O=c1[nH]nc(CNc2nc(-c3cc(-c4ccon4)n(Cc4ccccc4F)n3)ncc2F)[nH]1` [Compound I-441], for which the EC50 was in the range of 0.101 to 1 µM.

`O=c1nc[nH]n1-c1nc(-c2cc(-c3ccon3)n(Cc3ccccc3F)n2)ncc1F` [Compound I-442]: the EC50 was more than 1 µM.

As to `NC(=O)C(O)CNc1nc(-c2cc(-c3ccon3)n(Cc3ccccc3F)n2)ncc1F` (stereo not shown) [Compound I-443], the EC50 is 0.101 to 1 µM.

Regarding `O=S(=O)(CC(F)(F)F)Nc1ccnc(-c2cc(-c3ccon3)n(Cc3ccccc3F)n2)n1` [Compound I-444], the EC50 was 0.101 to 1 µM. Under “HEK293 cells, 10 μM DETA-NONOate, LC/MS detection, concentration eliciting 50% of high control response (30 μM I-329)”, the EC50 is 0.101 to 1 µM.

For `O=S(=O)(CCC(F)(F)F)Nc1nc(-c2cc(-c3ccon3)n(Cc3ccccc3F)n2)ncc1F` [Compound I-445], the EC50 fell in the range of 0.101 to 1 µM.

In the case of `COCCS(=O)(=O)Nc1nc(-c2cc(-c3ccon3)n(Cc3ccccc3F)n2)ncc1F` [Compound I-446], the EC50 is more than 1 µM.

For the compound `O=C(O)c1ccc(CNc2nc(-c3cc(-c4ccon4)n(Cc4ccccc4F)n3)ncc2F)s1` [Compound I-448], the EC50 fell in the range of 0.101 to 1 µM.

For `O=C(O)CCCCNc1nc(-c2cc(-c3ccon3)n(Cc3ccccc3F)n2)ncc1F` [Compound I-449], the EC50 was less than 0.1 µM.

Turning to `CC(=O)c1cc(-c2ncc(F)c(O)n2)nn1Cc1ccccc1F` [Compound I-450], the EC50 was more than 1 µM.

`CC(=O)c1cc(-c2ncc(F)c(N(C)CC3(C(=O)O)CC3)n2)nn1Cc1ccccc1F` [Compound I-451]: the EC50 lay within 0.101 to 1 µM.

For `NS(=O)(=O)Nc1ccnc(-c2cc(-c3ccon3)n(Cc3ccccc3F)n2)n1` [Compound I-456], the EC50 lay in the range of 0.101 to 1 µM.

As to `C[C@H]1CCCN(c2nc(-c3cc(C#N)n(Cc4ccccc4F)n3)ncc2F)[C@H]1C(=O)O` [Compound I-457], the EC50 lay in the range of 0.101 to 1 µM.

Consider `O=C1C=C(O)CC(C(=O)Nc2ccnc(-c3cc(-c4ccon4)n(Cc4ccccc4F)n3)n2)C1` (stereo not shown) [Compound I-458], for which the EC50 is more than 1 µM.

In the case of `O=C1CCC(C(=O)Nc2ccnc(-c3cc(-c4ccon4)n(Cc4ccccc4F)n3)n2)N1` (stereo not shown) [Compound I-459], the concentration for a half-maximal effect (EC50) is more than 1 µM.

Take `N#CC1(C(=O)Nc2nc(-c3cc(-c4ccon4)n(Cc4ccccc4F)n3)ncc2F)CC1` [Compound I-460]: the EC50 is more than 1 µM.

On to `O=C(Nc1ccnc(-c2cc(-c3ccon3)n(Cc3ccccc3F)n2)n1)C1(OCc2ccccc2)CC1` [Compound I-461], for which the EC50 is more than 1 µM.

As for `CC(=O)c1cc(-c2ncc(F)c(NC(CO)CO)n2)nn1Cc1ccccc1F` [Compound I-462], the EC50 was more than 1 µM.

Take `CC(=O)c1cc(-c2ncc(F)c(N3CCC[C@H](C)[C@@H]3C(=O)O)n2)nn1Cc1ccccc1F` [Compound I-463]: the EC50 lay in the range of 0.101 to 1 µM.

Take `O=C1CC(C(=O)Nc2ccnc(-c3cc(-c4ccon4)n(Cc4ccccc4F)n3)n2)CN1` (stereo not shown) [Compound I-464]: the EC50 was 0.101 to 1 µM.

Take `O=C(Nc1nc(-c2cc(-c3ccon3)n(Cc3ccccc3F)n2)ncc1F)C(F)(F)F` [Compound I-465]: the EC50 was 0.101 to 1 µM.

`Fc1ccccc1Cn1nc(-c2ncc(F)c(NCC(F)(F)F)n2)cc1-c1ccon1` [Compound I-466]: the EC50 is less than 0.1 µM.

With `O=C(O)C(O)(CNc1nc(-c2cc(-c3ccon3)n(Cc3ccccc3F)n2)ncc1F)C(F)(F)F` (stereo not shown) [Compound I-467], the 50% effective concentration (EC50) is more than 1 µM.

As to `O=C(Nc1nc(-c2cc(-c3ccon3)n(Cc3ccccc3F)n2)ncc1N1CCOCC1)C(O)(C(F)(F)F)C(F)(F)F` [Compound I-468], the EC50 was in the range of 0.101 to 1 µM.

Turning to `O=C(Cc1nccs1)Nc1ccnc(-c2cc(-c3ccon3)n(Cc3ccccc3F)n2)n1` [Compound I-469], the EC50 fell in the range of 0.101 to 1 µM.

For the compound `O=C(N1CC(Nc2nc(-c3cc(-c4ccon4)n(Cc4ccccc4F)n3)ncc2F)C1)C1(O)CC1` [Compound I-470], the concentration giving a half-maximal response (EC50) was less than 0.1 µM.
